Data as given in patent US11400107B2, “Cancer treatments” (NuCana plc, priority 2016, dated 2022).

Tested on: primary acute myeloid leukaemia (AML) blasts
Assay: In vitro cytotoxicity assay (LD50) in primary acute myeloid leukaemia cells
Assay type: cell-based, human
Details: primary AML blasts, 48 h; concentration required to kill 50% of the tumour cells in culture
Experimental: ProTide compounds, as defined herein, and the comparator ProTide compound NUC-1031 were assayed for their cytotoxic effects on primary cultures of acute myeloid leukaemia (AML) blasts. LD50 values (the concentration required to kill 50% of the tumour cells in culture) were calculated in respect of the ProTide compounds of the invention, and the parent compounds from which they are derived. […] The LD50 values of the ProTide compounds as defined herein (and their parent compounds) were compared with the comparator ProTide NUC-1031 and its parent compound gemcitabine.
Bone marrow samples were collected in ethylenediaminetetraacetic acid (EDTA) from newly diagnosed, previously untreated, acute myeloid leukaemia (AML) patients. AML blasts were enriched by density gradient centrifugation using Histopaque (Sigma, Poole, UK) and were subsequently maintained in Roswell Park Memorial Institute medium (RPMI) supplemented with 10% foetal bovine serum (FBS). Cells were treated with ProTide compounds (either as encompassed by the present invention, or the comparator ProTide NUC-1031) or with the ProTides' parent compounds at a range of experimental concentrations, and incubated for 48 h. All cultures were maintained at 37° C. in a 5% CO2 humidified atmosphere.
Cells were harvested and labelled with CD34-fluorescein isothiocyanate (FITC) (BD Biosciences, Buckingham, UK) and then resuspended in 200 μl of binding buffer containing 4 μl of annexin V labelled with allophycocyanin (APC) (eBioscience Ltd, Hatfield, UK). Apoptosis was quantified in the CD34^+ AML cells using an Accuri C6 flow cytometer (Becton Dickinson, CA, USA). At least 10,000 events were acquired and data were subsequently analysed using FlowJo software (Tree Star Inc., Ashland, Oreg., USA). All LD50 values (concentration of drug required to kill 50% of cells) were derived from the dose-response curves.

## C[C@H](NP(=O)(OC[C@H]1O[C@@H](n2ccc(N)nc2=O)C(F)(F)[C@@H]1O)Oc1ccccc1)C(=O)OCc1ccccc1 (stereo partly drawn) [NUC-1031, 2′-deoxy-2′,2′-difluoro-D-cytidine-5′-O-[phenyl (benzoxy-L-alaninyl)] phosphate]
  LD50: NUC-1031 0.28 μM
